Test results as given in ChEMBL document CHEMBL5505982, “Design, synthesis, biological evaluation and in silico studies of novel quinoline derivatives as potential radioprotective molecules targeting the TLR2 and p53 pathways” (Eur J Med Chem, 2024).
Active and inactive are the calls of the source. The rule behind the calls is not given here.

What was measured:
[1] = tested on: AHH-1; assay: Cytotoxicity against human AHH-1 cells assessed as inhibition of cell growth incubated for 24 hrs by CCK-8 assay; assay type: functional, cell-based; details: AHH-1, 24 h
[2] = tested on: AHH-1; assay: Anti-iradiation activity against human AHH-1 cells assessed as cell viability at 10 micromol preincubated with compound for 24 hrs followed by irradiation with 8 Gy and measured after 24 hrs by CCK-8 assay; assay type: functional; details: dose 10 µmol; time 48 hrs
[3] = tested on: AHH-1; assay: Induction of apoptosis in human AHH-1 cells assessed as necrotic cells preincubated with compound for 24 hrs followed by irradiation with 8 Gy and measured after 24 hrs of radiation by Annexin V-FITC/PI staining based flow cytometry analysis (reference value: 4.86%); assay type: functional; details: time 48 hrs
[4] = tested on: AHH-1; assay: Induction of apoptosis in human AHH-1 cells assessed as early apoptotic cells preincubated with compound for 24 hrs followed by irradiation with 6 Gy and measured after 24 hrs of radiation by Annexin V-FITC/PI staining based flow cytometry analysis (reference value: 14.1%); assay type: functional; details: time 48 hrs
[5] = tested on: Mus musculus; assay: Radioprotective activity in irradiated C57BL/6J mouse model assessed as increase in WBC count at 300 mg/kg, ip preincubated with compound for 15 to 1440 mins followed by irradiation with 6.5 Gy and measured on day 1 (reference value: 43.39%); assay type: functional; details: time 15-2880 min
[6] = tested on: AHH-1; assay: Induction of apoptosis in human AHH-1 cells assessed as necrotic cells preincubated with compound for 24 hrs followed by irradiation with 4 Gy and measured after 24 hrs of radiation by Annexin V-FITC/PI staining based flow cytometry analysis (reference value: 1.06%); assay type: functional; details: time 48 hrs
[7] = tested on: AHH-1; assay: Induction of apoptosis in human AHH-1 cells assessed as late apoptotic cells preincubated with compound for 24 hrs followed by irradiation with 6 Gy and measured after 24 hrs of radiation by Annexin V-FITC/PI staining based flow cytometry analysis (reference value: 29.8%); assay type: functional; details: time 48 hrs
[8] = tested on: AHH-1; assay: Induction of apoptosis in human AHH-1 cells assessed as viable cells preincubated with compound for 24 hrs followed by irradiation with 8 Gy and measured after 24 hrs of radiation by Annexin V-FITC/PI staining based flow cytometry analysis (reference value: 45.1%); assay type: functional; details: time 48 hrs
[9] = tested on: AHH-1; assay: Induction of apoptosis in human AHH-1 cells assessed as late apoptotic cells preincubated with compound for 24 hrs followed by irradiation with 8 Gy and measured after 24 hrs of radiation by Annexin V-FITC/PI staining based flow cytometry analysis (reference value: 33.6%); assay type: functional; details: time 48 hrs
[10] = tested on: AHH-1; assay: Induction of apoptosis in human AHH-1 cells assessed as early apoptotic cells preincubated with compound for 24 hrs followed by irradiation with 4 Gy and measured after 24 hrs of radiation by Annexin V-FITC/PI staining based flow cytometry analysis (reference value: 14.3%); assay type: functional; details: time 48 hrs
[11] = tested on: Mus musculus; assay: Radioprotective activity in C57BL/6J mouse assessed as survival rate at 30 mg/kg, ip preincubated with compound for 15 to 1440 mins followed by irradiation and measured at day 30; assay type: functional; details: light or radiation study, time 15-44640 min
[12] = tested on: AHH-1; assay: Induction of apoptosis in human AHH-1 cells assessed as late apoptotic cells preincubated with compound for 24 hrs followed by irradiation with 4 Gy and measured after 24 hrs of radiation by Annexin V-FITC/PI staining based flow cytometry analysis (reference value: 17.7%); assay type: functional; details: time 48 hrs
[13] = tested on: AHH-1; assay: Induction of apoptosis in human AHH-1 cells assessed as early apoptotic cells preincubated with compound for 24 hrs followed by irradiation with 8 Gy and measured after 24 hrs of radiation by Annexin V-FITC/PI staining based flow cytometry analysis (reference value: 16.5%); assay type: functional; details: time 48 hrs
[14] = tested on: Mus musculus; assay: Radioprotective activity in irradiated C57BL/6J mouse model assessed as increase in HGB count at 300 mg/kg, ip preincubated with compound for 15 to 1440 mins followed by irradiation with 6.5 Gy and measured after 1 to 10 days of radiation; assay type: functional, organism-based
[15] = tested on: Mus musculus; assay: Radioprotective activity in irradiated C57BL/6J mouse model assessed as increase in RBC count at 300 mg/kg, ip preincubated with compound for 15 to 1440 mins followed by irradiation with 6.5 Gy and measured after 10 to 13 days of radiation; assay type: functional, organism-based; details: Erythrocyte
[16] = tested on: Mus musculus; assay: Radioprotective activity in irradiated C57BL/6J mouse model assessed as increase in platelets count at 300 mg/kg, ip preincubated with compound for 15 to 1440 mins followed by irradiation with 6.5 Gy and measured after 3 to 10 days of radiation; assay type: functional, organism-based
[17] = tested on: Mus musculus; assay: Radioprotective activity in irradiated C57BL/6J mouse model assessed as increase in platelets count at 300 mg/kg, ip preincubated with compound for 15 to 1440 mins followed by irradiation with 6.5 Gy and measured after 2 days of radiation; assay type: functional, organism-based; details: time 15-4320 min
[18] = tested on: AHH-1; assay: Induction of apoptosis in human AHH-1 cells assessed as viable cells preincubated with compound for 24 hrs followed by irradiation with 6 Gy and measured after 24 hrs of radiation by Annexin V-FITC/PI staining based flow cytometry analysis (reference value: 52.3%); assay type: functional; details: time 48 hrs
[19] = tested on: Mus musculus; assay: Radioprotective activity in irradiated C57BL/6J mouse model assessed as increase in RBC count at 300 mg/kg, ip preincubated with compound for 15 to 1440 mins followed by irradiation with 6.5 Gy and measured after 13 days of radiation; assay type: functional, organism-based; details: Erythrocyte, time 15-20160 min
[20] = tested on: AHH-1; assay: Induction of apoptosis in human AHH-1 cells assessed as necrotic cells preincubated with compound for 24 hrs followed by irradiation with 6 Gy and measured after 24 hrs of radiation by Annexin V-FITC/PI staining based flow cytometry analysis (reference value: 3.71%); assay type: functional; details: time 48 hrs
[21] = tested on: AHH-1; assay: Induction of apoptosis in human AHH-1 cells assessed as viable cells preincubated with compound for 24 hrs followed by irradiation with 4 Gy and measured after 24 hrs of radiation by Annexin V-FITC/PI staining based flow cytometry analysis (reference value: 66.9 %); assay type: functional; details: time 48 hrs
[22] = tested on: Mus musculus; assay: Radioprotective activity in irradiated C57BL/6J mouse model assessed as increase in platelets count at 300 mg/kg, ip preincubated with compound for 15 to 1440 mins followed by irradiation with 6.5 Gy and measured after 10 to 13 days of radiation; assay type: functional, organism-based
[23] = tested on: Mus musculus; assay: Radioprotective activity in irradiated C57BL/6J mouse model assessed as increase in HGB count at 300 mg/kg, ip preincubated with compound for 15 to 1440 mins followed by irradiation with 6.5 Gy and measured after 13 days of radiation; assay type: functional, organism-based; details: time 15-20160 min

## O=S(=O)(Cc1ccc(Br)cc1)c1ccc2cc(Cl)ccc2n1
[1]
  IC50: > 640 µM

## Fc1ccc(CSc2ccc3cc(F)ccc3n2)cc1
[1]
  IC50: > 640 µM

## Fc1ccc(CSc2ccc3cc(Cl)ccc3n2)cc1
[1]
  IC50: 153 µM

## O=S(=O)(Cc1ccc(Br)cc1)c1ccc2cc(Br)ccc2n1
[1]
  IC50: > 640 µM

## [O-][S+](Cc1ccc(F)cc1)c1ccc2cc(Cl)ccc2n1 (centres undefined)
[1]
  IC50: > 640 µM

## Brc1ccc(CSc2ccc3ccccc3n2)cc1
[1]
  IC50: 174 µM

## O=S(=O)(Cc1ccc(F)cc1)c1ccc2cc(Cl)ccc2n1
[1]
  IC50: > 640 µM

## N#Cc1ccc(CSc2ccc3cc(Br)ccc3n2)cc1
[1]
  IC50: 146 µM

## O=C(O)c1ccc(CSc2ccc3cc(Cl)ccc3n2)cc1
[1]
  IC50: > 640 µM

## Fc1ccc(CSc2ccc3ccccc3n2)cc1
[1]
  IC50: > 640 µM

## O=S(=O)(Cc1ccccc1)c1ccc2cc(F)ccc2n1
[1]
  IC50: > 640 µM

## O=S(=O)(Cc1ccc(Cl)cc1)c1ccc2cc(Br)ccc2n1
[1]
  IC50: > 640 µM
[2]
  Activity: 27.81%

## [O-][S+](Cc1ccc(Br)cc1)c1ccc2cc(Br)ccc2n1 (centres undefined)
[1]
  IC50: > 640 µM

## O=S(=O)(Cc1ccc(Cl)cc1)c1ccc2ccccc2n1
[1]
  IC50: 129 µM

## Clc1ccc(CSc2ccc3cc(Br)ccc3n2)cc1
[1]
  IC50: 215 µM

## [O-][S+](Cc1ccc(Cl)cc1)c1ccc2cc(Br)ccc2n1 (centres undefined)
[1]
  IC50: 224 µM
[2]
  Activity: 30.63%

## N#Cc1ccc(C[S+]([O-])c2ccc3cc(Br)ccc3n2)cc1 (centres undefined)
[1]
  IC50: 212 µM

## O=S(=O)(Cc1ccc(Cl)cc1)c1ccc2cc(Cl)ccc2n1
[1]
  IC50: > 640 µM

## N#Cc1ccc(C[S+]([O-])c2ccc3cc(Cl)ccc3n2)cc1 (centres undefined)
[1]
  IC50: > 640 µM

## O=C([O-])c1ccc(/C=C/S(=O)(=O)Cc2ccc(Cl)cc2)cc1.[Na+] [RECILISIB SODIUM]
[3]
  Activity: 8.35%
[4]
  Activity: 14.8%
[5]
  Activity: 47.73%
[1]
  IC50: > 640 µM
[6]
  Activity: 4.82%
[7]
  Activity: 28.4%
[8]
  Activity: 48%
[9]
  Activity: 27.3%
[10]
  Activity: 16.5%
[11]
  survival at 30 mg/kg: 40%
[12]
  Activity: 31.1%
[13]
  Activity: 16.4%
[14]
  Activity: inactive
[15]
  Activity: Active
[16]
  Activity: inactive
[17]
  Activity: Active
[18]
  Activity: 49.2%
[19]
  Activity: Active
[20]
  Activity: 7.68%
[21]
  Activity: 47.5%
[22]
  Activity: Active
[23]
  Activity: Active

## [O-][S+](Cc1ccc(F)cc1)c1ccc2cc(F)ccc2n1 (centres undefined)
[1]
  IC50: > 640 µM

## O=S(=O)(Cc1ccc(F)cc1)c1ccc2cc(Br)ccc2n1
[1]
  IC50: > 640 µM

## Clc1ccc2nc(SCc3ccc(Br)cc3)ccc2c1
[1]
  IC50: > 640 µM

## O=S(=O)(Cc1ccccc1)c1ccc2cc(Br)ccc2n1
[1]
  IC50: 169 µM

## Fc1ccc2nc(SCc3ccccc3)ccc2c1
[1]
  IC50: > 640 µM

## O=S(=O)(Cc1ccc(Br)cc1)c1ccc2ccccc2n1
[1]
  IC50: > 640 µM

## [O-][S+](Cc1ccc(Br)cc1)c1ccc2cc(Cl)ccc2n1 (centres undefined)
[1]
  IC50: > 640 µM

## O=C(O)c1ccc(CS(=O)(=O)c2ccc3cc(F)ccc3n2)cc1
[1]
  IC50: > 640 µM

## O=C(O)c1ccc(C[S+]([O-])c2ccc3cc(F)ccc3n2)cc1 (centres undefined)
[1]
  IC50: > 640 µM
[11]
  survival at 30 mg/kg: 50%
[2]
  Activity: 30.18%

## [O-][S+](Cc1ccc(Cl)cc1)c1ccc2cc(Cl)ccc2n1 (centres undefined)
[1]
  IC50: > 640 µM

## Brc1ccc2nc(SCc3ccccc3)ccc2c1
[1]
  IC50: > 640 µM

## Brc1ccc(CSc2ccc3cc(Br)ccc3n2)cc1
[1]
  IC50: > 640 µM

## [O-][S+](Cc1ccc(Cl)cc1)c1ccc2ccccc2n1 (centres undefined)
[1]
  IC50: 97 µM

## N#Cc1ccc(CS(=O)(=O)c2ccc3cc(Cl)ccc3n2)cc1
[1]
  IC50: > 640 µM

## Clc1ccc(CSc2ccc3cc(Cl)ccc3n2)cc1
[1]
  IC50: > 640 µM

## N#Cc1ccc(CSc2ccc3cc(Cl)ccc3n2)cc1
[1]
  IC50: > 640 µM

## [O-][S+](Cc1ccc(Br)cc1)c1ccc2ccccc2n1 (centres undefined)
[1]
  IC50: > 640 µM

## [O-][S+](Cc1ccccc1)c1ccc2cc(Br)ccc2n1 (centres undefined)
[1]
  IC50: > 640 µM

## Clc1ccc(CSc2ccc3ccccc3n2)cc1
[1]
  IC50: 73 µM

## Fc1ccc(CSc2ccc3cc(Br)ccc3n2)cc1
[1]
  IC50: > 640 µM
[2]
  Activity: 26.21%

## [O-][S+](Cc1ccc(F)cc1)c1ccc2ccccc2n1 (centres undefined)
[1]
  IC50: > 640 µM

## O=S(=O)(Cc1ccc(F)cc1)c1ccc2cc(F)ccc2n1
[1]
  IC50: > 640 µM
[2]
  Activity: 27.51%
